Test results from patent US12139520B2 (priority 2020, dated 2024).
Bridge positions count the residues as written; N and C are the ends. Square brackets hold non-standard residues; d marks the D form. Peptide text beside a SMILES is read from it. Hyp = O=C(O)[C@@H]1C[C@@H](O)CN1; Cit = NC(=O)NCCC[C@H](N)C(=O)O

Assays:
hAMY3 receptor = biological target: T1, hAMY3 receptor (Homo sapiens, UniProt O60896+P30988); experiment: cAMP assay for in vitro receptor activation, hAMY3-R; format: cell-based; settings: cAMP assay, hAMY3 receptor; read-out: hAMY3R EC50
T1 sequence (P30988 25-474): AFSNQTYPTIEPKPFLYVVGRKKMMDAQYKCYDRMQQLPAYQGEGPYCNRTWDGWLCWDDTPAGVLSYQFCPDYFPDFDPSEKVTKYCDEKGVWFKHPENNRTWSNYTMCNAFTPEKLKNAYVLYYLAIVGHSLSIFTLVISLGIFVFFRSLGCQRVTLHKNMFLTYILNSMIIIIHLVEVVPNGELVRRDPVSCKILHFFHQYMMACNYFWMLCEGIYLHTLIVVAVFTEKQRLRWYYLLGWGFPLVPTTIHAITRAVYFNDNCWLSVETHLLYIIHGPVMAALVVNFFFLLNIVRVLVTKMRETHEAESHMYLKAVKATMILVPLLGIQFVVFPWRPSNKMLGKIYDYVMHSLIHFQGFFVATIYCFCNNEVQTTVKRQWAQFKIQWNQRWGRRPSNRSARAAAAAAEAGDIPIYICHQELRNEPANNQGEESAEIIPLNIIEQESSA
T1 sequence (O60896 24-148 partner): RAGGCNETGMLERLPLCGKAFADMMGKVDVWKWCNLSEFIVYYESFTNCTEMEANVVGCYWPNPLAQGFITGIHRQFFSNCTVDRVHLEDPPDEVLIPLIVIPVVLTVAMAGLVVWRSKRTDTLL
Method in brief: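 Stable hAMY3 cells; DPBS + 0.05% casein + 0.5 mM IBMX; graded compound doses, 30 min, RT; cAMP via HTRF Gs kit, TR-FRET read at 1 h.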

[1] = Physical stability of peptide analogues (Thioflavin T fibrillation); format: physicochemical; settings: maximum ThT signal normalized between hAMY maximum and buffer background; 40° C., shaking, four days; pH 7 per table title
Method in brief: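 ThT fluorescence (450 nm excitation, 480 nm emission; 4 μM dye) was read every 10 min over four days at 40° C under 700 rpm shaking stress, after 1 h in pH 4 acetate or pH 7 phosphate (50 mM). Peak smoothed signal expressed as percent, scaled between buffer background and hAMY maximum.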

hAM1 receptor = hAM1 receptor (Homo sapiens, UniProt O60895+Q16602); experiment: cAMP assay for in vitro receptor activation, hAM1-R; format: cell-based; settings: cAMP assay, hAM1 receptor; read-out: hAM1R EC50
Chain of hAM1 receptor (Q16602 23-461): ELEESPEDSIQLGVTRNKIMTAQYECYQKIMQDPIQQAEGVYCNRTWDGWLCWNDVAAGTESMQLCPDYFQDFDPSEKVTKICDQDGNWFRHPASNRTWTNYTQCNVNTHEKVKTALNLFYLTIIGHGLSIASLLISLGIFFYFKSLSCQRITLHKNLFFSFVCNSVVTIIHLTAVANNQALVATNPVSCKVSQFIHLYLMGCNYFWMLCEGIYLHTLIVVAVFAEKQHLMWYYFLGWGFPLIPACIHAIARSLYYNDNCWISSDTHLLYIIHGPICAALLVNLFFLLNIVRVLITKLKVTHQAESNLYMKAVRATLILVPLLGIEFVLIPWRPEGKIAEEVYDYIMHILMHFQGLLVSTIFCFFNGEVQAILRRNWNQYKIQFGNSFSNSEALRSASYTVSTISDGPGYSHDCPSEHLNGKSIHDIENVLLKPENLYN
Chain of hAM1 receptor (O60895 43-175 partner): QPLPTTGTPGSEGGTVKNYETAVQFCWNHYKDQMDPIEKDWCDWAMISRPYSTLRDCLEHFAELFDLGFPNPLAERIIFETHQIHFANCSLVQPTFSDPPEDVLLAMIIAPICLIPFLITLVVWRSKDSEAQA
Method in brief: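 Monoclonal stable hAM1-overexpressing cells, thawed from frozen stock; 8000 cells/well in DPBS + 0.05% casein + 0.5 mM IBMX; read-out cAMP.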

SMILES | EC50 (hAMY3 receptor) [nM] | Max ThT signal (%) [1] [%] | EC50 (hAM1 receptor) [nM]
CC[C@H](C)[C@H](NC(=O)[C@H](CCC(N)=O)NC(=O)[C@H](Cc1c[nH]cn1)NC(=O)[C@H](C)NC(=O)[C@H](CC(C)C)NC(=O)[C@H](CCCNC(N)=O)NC(=O)[C@H](CCC(N)=O)NC(=O)[C@@H](NC(=O)[C@@H](NC(=O)[C@@H]1CSSC[C@H](NC(=O)[C@@H](N)CCCCN)C(=O)N[C@@H](CC(N)=O)C(=O)N[C@@H]([C@@H](C)O)C(=O)N[C@@H](C)C(=O)N[C@@H]([C@@H](C)O)C(=O)N1)[C@@H](C)O)C(C)C)C(=O)N[C@@H](Cc1ccc(O)cc1)C(=O)N[C@@H](CCC(N)=O)C(=O)N[C@@H](C)C(=O)N[C@H](C(=O)N[C@@H](CC(=O)O)C(=O)N[C@@H](CCCCN)C(=O)N[C@@H](CC(=O)O)C(=O)N[C@@H](CCCCN)C(=O)N[C@@H](CC(=O)O)C(=O)N[C@@H](CC(N)=O)C(=O)N[C@H](C(=O)N[C@@H](C)C(=O)N1CCC[C@H]1C(=O)N1CCC[C@H]1C(=O)N[C@H](C(=O)N[C@@H](CC(N)=O)C(=O)N[C@H](C(=O)NCC(=O)N[C@@H](CO)C(=O)N[C@@H](CC(N)=O)C(=O)NCC(=O)N1C[C@H](O)C[C@H]1C(N)=O)C(C)C)[C@@H](C)O)C(C)C)[C@@H](C)O [compound 276] (H-KCNTATCTVQ[Cit]LAHQIYQATDKDKDNVAPPTNVGSNG[Hyp]-NH2; disulfide 2-7; N-terminus assumed) | 0.056 | 8.950 | > 5000
CC[C@H](C)[C@H](NC(=O)[C@H](CC(N)=O)NC(=O)[C@@H](NC(=O)[C@H](CCCNC(=N)N)NC(=O)[C@@H]1CCCN1C(=O)[C@H](C)NC(=O)[C@@H](NC(=O)[C@H](CC(N)=O)NC(=O)[C@H](CC(=O)O)NC(=O)[C@H](CCCCN)NC(=O)[C@H](CC(=O)O)NC(=O)[C@H](CCCCN)NC(=O)[C@H](CC(=O)O)NC(=O)[C@@H](NC(=O)[C@H](Cc1ccccc1)NC(=O)[C@H](CCC(N)=O)NC(=O)[C@H](Cc1ccc(O)cc1)NC(=O)[C@@H](NC(=O)[C@H](CCC(N)=O)NC(=O)[C@H](Cc1c[nH]cn1)NC(=O)[C@H](C)NC(=O)[C@H](CC(C)C)NC(=O)[C@H](CCCNC(N)=O)NC(=O)[C@H](CCC(N)=O)NC(=O)[C@@H](NC(=O)[C@@H](NC(=O)[C@@H]1CSSC[C@H](NC(=O)CN)C(=O)N[C@@H](CCCNC(=N)N)C(=O)N[C@@H]([C@@H](C)O)C(=O)NCC(=O)N[C@@H]([C@@H](C)O)C(=O)N1)[C@@H](C)O)C(C)C)[C@@H](C)CC)[C@@H](C)O)C(C)C)[C@@H](C)O)C(=O)NCC(=O)N1CCC[C@H]1C(=O)N[C@@H](CCC(N)=O)C(=O)NCC(=O)N1C[C@H](O)C[C@H]1C(N)=O [compound 280] (H-GCRTGTCTVQ[Cit]LAHQIYQFTDKDKDNVAPRTNIGPQG[Hyp]-NH2; disulfide 2-7; N-terminus assumed) | 0.024 | 26.450 | > 5000
CC[C@H](C)[C@H](NC(=O)[C@H](CCC(N)=O)NC(=O)[C@H](Cc1c[nH]cn1)NC(=O)[C@H](C)NC(=O)[C@H](CC(C)C)NC(=O)[C@H](CCCNC(N)=O)NC(=O)[C@H](CCC(N)=O)NC(=O)[C@@H](NC(=O)[C@@H](NC(=O)[C@@H]1CSSC[C@H](NC(=O)CN)C(=O)N[C@@H](CCCNC(=N)N)C(=O)N[C@@H]([C@@H](C)O)C(=O)NCC(=O)N[C@@H]([C@@H](C)O)C(=O)N1)[C@@H](C)O)C(C)C)C(=O)N[C@@H](Cc1ccc(O)cc1)C(=O)N[C@@H](CCC(N)=O)C(=O)N[C@@H](Cc1ccccc1)C(=O)N[C@H](C(=O)N[C@@H](CC(=O)O)C(=O)N[C@@H](CCCCN)C(=O)N[C@@H](CC(=O)O)C(=O)N[C@@H](CCCCN)C(=O)N[C@@H](CC(=O)O)C(=O)N[C@@H](CC(N)=O)C(=O)N[C@H](C(=O)N[C@@H](C)C(=O)N1CCC[C@H]1C(=O)N[C@@H](CCCNC(=N)N)C(=O)N[C@@H](CO)C(=O)N[C@@H](CC(N)=O)C(=O)N[C@H](C(=O)NCC(=O)N1CCC[C@H]1C(=O)N[C@@H](CCC(N)=O)C(=O)NCC(=O)N1C[C@H](O)C[C@H]1C(N)=O)C(C)C)C(C)C)[C@@H](C)O [compound 281] (H-GCRTGTCTVQ[Cit]LAHQIYQFTDKDKDNVAPRSNVGPQG[Hyp]-NH2; disulfide 2-7; N-terminus assumed) | 0.034 | 22.650 | > 5000
CC[C@H](C)[C@H](NC(=O)[C@H](CCC(N)=O)NC(=O)[C@H](Cc1c[nH]cn1)NC(=O)[C@H](C)NC(=O)[C@H](CC(C)C)NC(=O)[C@H](CCCNC(N)=O)NC(=O)[C@H](CCC(N)=O)NC(=O)[C@@H](NC(=O)[C@@H](NC(=O)[C@@H]1CSSC[C@H](NC(=O)CN)C(=O)N[C@@H](CCCNC(=N)N)C(=O)N[C@@H](Cc2ccccc2)C(=O)NCC(=O)N[C@@H]([C@@H](C)O)C(=O)N1)[C@@H](C)O)C(C)C)C(=O)N[C@@H](Cc1ccc(O)cc1)C(=O)N[C@@H](CCC(N)=O)C(=O)N[C@@H](Cc1ccccc1)C(=O)N[C@H](C(=O)N[C@@H](CC(=O)O)C(=O)N[C@@H](CCCCN)C(=O)N[C@@H](CC(=O)O)C(=O)N[C@@H](CCCCN)C(=O)N[C@@H](CC(=O)O)C(=O)N[C@@H](CC(N)=O)C(=O)N[C@H](C(=O)N[C@@H](C)C(=O)N1CCC[C@H]1C(=O)N[C@@H](CCCNC(=N)N)C(=O)N[C@H](C(=O)N[C@@H](CC(N)=O)C(=O)N[C@H](C(=O)N[C@@H](CO)C(=O)N1CCC[C@H]1C(=O)N[C@@H](CCC(N)=O)C(=O)NCC(=O)N1C[C@H](O)C[C@H]1C(N)=O)C(C)C)[C@@H](C)O)C(C)C)[C@@H](C)O [compound 283] (H-GCRFGTCTVQ[Cit]LAHQIYQFTDKDKDNVAPRTNVSPQG[Hyp]-NH2; disulfide 2-7; N-terminus assumed) | 0.035 | 17.100 | > 5000
CC[C@H](C)[C@H](NC(=O)[C@H](CCC(N)=O)NC(=O)[C@H](Cc1c[nH]cn1)NC(=O)[C@H](C)NC(=O)[C@H](CC(C)C)NC(=O)[C@H](CCCNC(N)=O)NC(=O)[C@H](CCC(N)=O)NC(=O)[C@@H](NC(=O)[C@@H](NC(=O)[C@@H]1CSSC[C@H](NC(=O)CN)C(=O)N[C@@H](CCCNC(=N)N)C(=O)N[C@@H]([C@@H](C)O)C(=O)NCC(=O)N[C@@H]([C@@H](C)O)C(=O)N1)[C@@H](C)O)C(C)C)C(=O)N[C@@H](Cc1ccc(O)cc1)C(=O)N[C@@H](CCC(N)=O)C(=O)N[C@@H](Cc1ccccc1)C(=O)N[C@H](C(=O)N[C@@H](CC(=O)O)C(=O)N[C@@H](CCCCN)C(=O)N[C@@H](CC(=O)O)C(=O)N[C@@H](CCCCN)C(=O)N[C@@H](CC(=O)O)C(=O)N[C@@H](CC(N)=O)C(=O)N[C@H](C(=O)N[C@@H](C)C(=O)N1CCC[C@H]1C(=O)N[C@@H](CCCNC(=N)N)C(=O)N[C@@H](CO)C(=O)N[C@@H](CCCCN)C(=O)N[C@H](C(=O)NCC(=O)N1CCC[C@H]1C(=O)N[C@@H](CCC(N)=O)C(=O)NCC(=O)N[C@@H](Cc1ccc(O)cc1)C(N)=O)C(C)C)C(C)C)[C@@H](C)O [compound 285] (H-GCRTGTCTVQ[Cit]LAHQIYQFTDKDKDNVAPRSKVGPQGY-NH2; disulfide 2-7; N-terminus assumed) | 0.157 | 31.200 | > 5000
CC[C@H](C)[C@H](NC(=O)[C@H](CCC(N)=O)NC(=O)[C@H](Cc1c[nH]cn1)NC(=O)[C@H](C)NC(=O)[C@H](CC(C)C)NC(=O)[C@H](CCCNC(N)=O)NC(=O)[C@H](CCC(N)=O)NC(=O)[C@@H](NC(=O)[C@@H](NC(=O)[C@@H]1CSSC[C@H](NC(=O)CN)C(=O)N[C@@H](CCCNC(=N)N)C(=O)N[C@@H](Cc2ccccc2)C(=O)NCC(=O)N[C@@H]([C@@H](C)O)C(=O)N1)[C@@H](C)O)C(C)C)C(=O)N[C@@H](Cc1ccc(O)cc1)C(=O)N[C@@H](CCC(N)=O)C(=O)N[C@@H](Cc1ccccc1)C(=O)N[C@H](C(=O)N[C@@H](CC(=O)O)C(=O)N[C@@H](CCCCN)C(=O)N[C@@H](CC(=O)O)C(=O)N[C@@H](CCCCN)C(=O)N[C@@H](CC(=O)O)C(=O)N[C@@H](CC(N)=O)C(=O)N[C@H](C(=O)N[C@@H](C)C(=O)N1CCC[C@H]1C(=O)N[C@@H](CCCNC(=N)N)C(=O)N[C@H](C(=O)N[C@@H](CCCCN)C(=O)N[C@H](C(=O)N[C@@H](CO)C(=O)N1CCC[C@H]1C(=O)N[C@@H](CC(N)=O)C(=O)NCC(=O)N1C[C@H](O)C[C@H]1C(N)=O)C(C)C)[C@@H](C)O)C(C)C)[C@@H](C)O [compound 288] (H-GCRFGTCTVQ[Cit]LAHQIYQFTDKDKDNVAPRTKVSPNG[Hyp]-NH2; disulfide 2-7; N-terminus assumed) | 0.03 | 17.450 | > 5000
